Results taken from patent publication US20240360091A1, “GLUN2B-SUBUNIT SELECTIVE ANTAGONISTS OF THE N-METHYL-D-ASPARTATE RECEPTORS WITH ENHANCED POTENCY AT ACIDIC PH” (Emory University, priority 2021, published 2024).

What was measured:
[1] = Liver microsome stability, human; assay type: in vitro ADME; settings: 1 μM, with cofactors, one-hour incubation at 37° C.
Procedure: Metabolic stability was assessed using human and mouse liver microsomes (Xenotech, USA). The final composition of the assay included 1 μM of the test compound or reference standards (imipramine and diclofenac sodium) prepared from DMSO or acetonitrile stock, so that the final concentration of DMSO and acetonitrile was 0.2% and 0.8%, respectively. The test compound was incubated with 0.5 mg/mL microsomal protein without (100 mM potassium phosphate buffer alone, pH 7.4) or with cofactors (5.0 mM glucose-6-phosphate, 0.06 U glucose-6-phosphate dehydrogenase, 2.0 mM MgCl2, 1.0 mM NADP^+/NADPH). The test compound and standards were incubated at 37° C. with human and mouse liver microsomes; aliquots of the reaction mixture (100 μL) were removed at 0, 5, 15, 30, 60 and 120 min. The reaction in the aliquots was stopped by the addition of 2.5 mL tert-butyl methyl ether and the samples were subjected to shaking for 15 min. […] The percent of the test compound remaining after the specified incubation period was calculated with respect to the peak areas of the test compound at time 0 min.
The compound and standards were incubated with human and mouse liver microsomes with or without cofactors, and the samples were extracted and analyzed using LC-MS/MS, as described above.

5-HT2A = 5-HT2A (Homo sapiens (Human), UniProt P28223); test: Off-target radioligand binding displacement (NIMH PDSP); settings: pH 7.4
Procedure: (§1) Briefly, the compound was submitted to the NIMH PDSP and screened at a single concentration (10 μM) of test article under equilibrium conditions for ability to displace specific radioligands from binding to their targets expressed in mammalian cell membranes in vitro. Each receptor target was assayed in quadruplicate and the % inhibition of radioligand binding at each target determined at pH 7.4. […]

SERT = SERT (Homo sapiens (Human), UniProt P31645); test: as above; settings: pH 7.4
Procedure: as §1

[2] = tested on: MCAO model of transient ischemia in mice; test: In vivo model of transient focal ischemia, middle cerebral artery occlusion (MCAO); parameters: species or system mouse; settings: for infarct volume: 24 hours post reperfusion
Procedure: All protocols involving animals were approved by the Georgia State University IACUC, an AAALAC accredited program, and was under the supervision of a licensed veterinarian. Mice were group housed, provided nestlets and shelters with access to food pellets and water ad libitum under a 12-hour light/dark cycle. Mice were brought to a separate room and housed for at least 30 min prior to initiation of the surgery.
Mice (C57B16, >90 days old, Jackson Labs) were subjected to transient (60 min) middle cerebral artery occlusion (MCAO) and the infarct volume measured 24 hours post reperfusion, similar as previously described (Yuan, et al., Neuron, 2015, 85(6):1305-1318). Male mice were used for this experiment to reduce potential confound by progesterone variation through estrous cycles, which can have neuroprotective actions. Briefly, transient ischemia was induced in anesthetized (2% isoflurane/98% O2) mice by insertion of an intraluminal suture into the MCA for 60 minutes (Junge, et al., Proc NatlAcad Sci USA, 2003, 100: 13019-13024). The body temperature of each mouse was monitored with a rectal thermometer and maintained at 37° C. through use of a homeothermic blanket. Changes in local cerebral blood flow were monitored with a laser Doppler flowmeter probe (Perimed) secured via glue to the skull 4-6 mm lateral and 2 mm posterior of bregma. An 11-mm 5-0 Dermalon or Look (SP185) black nylon non-absorbable suture with the tip flame-rounded was introduced into the left internal carotid artery through the external carotid artery stump up to 10.5-11 mm of suture insertion. Only mice with a reduction in blood flow to <20% for 60 min and with recovery of blood flow to >90% following removal of the suture were progressed to complete the study. Following the occlusion period, mice were placed back in their cages on a warming blanket (37° C.) for several hours and monitored for righting reflex and ability to ambulate upon a gentle touch. At 24 hours post occlusion, mice were euthanized by isoflurane overdose, the brain quickly removed and cut into 2 mm sections and incubated in 2% 2,3,5-triphenyltetrazolium chloride (TTC) in phosphate buffered saline (pH 7.4) at 37° C. for 20 min, then placed at 4° C. for imaging. The infarct area was then measured using the NIH IMAGE software (Scion Corporation, Beta 4.0.2 release). The lesioned area of each section was determined by digital threshold reductions in TTC staining to ≤20% lower intensity than that observed in the contralateral cortex. The infarct region was then manually outlined with a curser and the cubic volume of the infarct determined for each slice, then summed across all four slices from each animal to obtain total infarct volume. […]

[3] = tested on: motor coordination of mice on rotarod; test: Rotarod performance; assay type: in vivo, mouse; settings: for rotarod impairment: all four trials
Procedure: The locomotor and rotarod studies were approved by the Georgia State University IACUC, an AAALAC accredited institution under the supervision of licensed veterinarians. Mice were group housed, provided nestlets and shelters with access to food pellets and water ad libitum under a 12-hour light/dark cycle.
For rotarod experiments, male C57BL/6 mice (>90 days old) were tested using a Rotamax 4/8 rotarod (Columbus Instruments, Columbus, Ohio). Prior to training and testing, the mice were brought to the testing room and allowed to acclimate for two hours prior to any further handling. Mice were placed on a rotating rod (5 rpm), 3.8 cm in diameter and 8 cm wide, elevated 30 cm from the floor of a chamber. After 10 sec of rotation at a fixed velocity, the rotation was slowly accelerated from 5 to 35 rpm over a 5 min period. The duration of time that the mouse could stay on the rotarod, without hanging on for a full rotation or without falling, was recorded. Mice were trained 4 times at 25 min inter-trial intervals on each day for two days. On day three, mice were randomly assigned to treatment groups and administered test drug or vehicle (via IP administration) 25 min prior to testing (4 trials with inter-trial interval of 25 min). Individuals performing the experiment were blinded to the identity of each treatment group. Results were analyzed by ANOVA and Dunnett's post hoc test to compare duration of time on the rotating rod of drug-treated groups to the vehicle controls.

clinical = settings: human, plasma, intravenous
Procedure: Subjects checked into the clinic on Day 1 and remained in the clinic through the 48 h post-dose blood draw on Day 7, after which time they were discharged. Subjects returned to the clinic for a follow-up visit at Day 9. […] Dose levels included 25, 50 and 100 mg.
Collection tubes containing K2EDTA were be used to collect 5 mL of whole blood sample at each time point. Immediately after collection, tubes were inverted to mix the anticoagulant with the blood sample. Tubes were then centrifuged at a speed of approximately 3000 g force for 10 minutes at 4° C. Within 5 minutes of centrifugation the plasma fraction was transferred into two equal aliquots (1.25 mL each) into 2 mL cryovials and then frozen and stored at −70° C.
The method was adapted and used to measure plasma samples by TMD Pharmaceutical Research (Newark, DE). […] Analytes were detected by multiple reaction monitoring using an MDS Sciex API 4000 mass spectrometer (AB Sciex, Framingham, MA) in positive mode.
The pharmacokinetic analysis was performed based on the non-compartmental analysis approach (M. Garibaldi and D Perrier, Pharmacokinetics 2nd Edition, Chapter 11, Marcel Dekker Inc., New York, 1982) using MS Excel®.

SERT, sequence (P31645 whole entry, species assumed, the tested form may be a part): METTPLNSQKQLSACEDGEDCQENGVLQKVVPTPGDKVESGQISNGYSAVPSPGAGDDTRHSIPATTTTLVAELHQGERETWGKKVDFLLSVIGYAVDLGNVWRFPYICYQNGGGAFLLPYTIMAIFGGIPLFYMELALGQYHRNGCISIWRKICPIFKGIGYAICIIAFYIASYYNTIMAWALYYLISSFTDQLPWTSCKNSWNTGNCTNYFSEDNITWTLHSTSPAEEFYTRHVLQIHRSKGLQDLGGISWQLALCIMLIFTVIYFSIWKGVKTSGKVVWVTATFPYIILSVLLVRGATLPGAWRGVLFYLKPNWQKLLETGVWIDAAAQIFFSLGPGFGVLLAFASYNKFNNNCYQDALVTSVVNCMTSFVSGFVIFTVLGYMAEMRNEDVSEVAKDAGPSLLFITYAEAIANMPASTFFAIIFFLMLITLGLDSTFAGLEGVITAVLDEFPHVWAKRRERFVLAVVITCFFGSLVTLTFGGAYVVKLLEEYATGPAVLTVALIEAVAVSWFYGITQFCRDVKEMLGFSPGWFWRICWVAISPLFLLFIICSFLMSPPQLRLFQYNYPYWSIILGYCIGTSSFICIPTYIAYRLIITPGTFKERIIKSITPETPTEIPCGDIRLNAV
5-HT2A, sequence (P28223 whole entry): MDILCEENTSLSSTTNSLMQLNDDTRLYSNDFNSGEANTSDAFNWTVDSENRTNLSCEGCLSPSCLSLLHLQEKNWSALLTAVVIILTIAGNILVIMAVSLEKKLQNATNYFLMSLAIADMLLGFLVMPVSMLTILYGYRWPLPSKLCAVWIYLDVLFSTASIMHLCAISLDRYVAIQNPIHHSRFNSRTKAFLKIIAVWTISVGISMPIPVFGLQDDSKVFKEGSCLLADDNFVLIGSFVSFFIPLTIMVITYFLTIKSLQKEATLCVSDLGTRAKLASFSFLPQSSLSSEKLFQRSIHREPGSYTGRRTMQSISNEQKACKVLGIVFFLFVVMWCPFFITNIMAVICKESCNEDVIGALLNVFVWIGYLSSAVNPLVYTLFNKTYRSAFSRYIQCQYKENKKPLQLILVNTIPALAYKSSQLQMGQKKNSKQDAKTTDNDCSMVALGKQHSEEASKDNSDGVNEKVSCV

percent remaining in human liver microsomes [1]: 72% | Ki (5-HT2A): 0.638 µM | Ki (SERT): 0.135 µM | Cmax (clinical; 25 mg): 213 ± 26 ng/mL | Tmax (clinical; 25 mg): 0.5 h | half-life (clinical; 25 mg): 15.4 to 36.2 h | Cmax (clinical; 50 mg): 394 ± 72 ng/mL | Tmax (clinical; 50 mg): 1 ± 0.4 h | half-life (clinical; 50 mg): 15.5 to 25.6 h | half-life (clinical; 100 mg): 12.5 to 34 h
Compound: O=C1CCc2cc(OC[C@H](O)CN3CCN(c4ccc(C(F)(F)F)cc4)CC3)ccc2N1 [NP10679]
infarct volume ([2]; 5 mg/kg IP): 56±6.6 mm^3 | infarct volume ([2]; 10 mg/kg IP): 49±3.0 mm^3 | maximum infarct volume reduction ([2]; IP dose prior to 60 min MCAO): 52% | ED50 ([2]; Mus musculus, 1 h, IP dose prior to 60 min MCAO, read-out: ED50 for infarct volume reduction): 1 mg/kg | rotarod impairment ([3]; 2 mg/kg IP): no significant impairment | rotarod impairment ([3]; 5 mg/kg IP): no significant impairment | latency to fall ([3]; 10 mg/kg IP, fourth trial): 87 ± 13 s | latency to fall, change from the vehicle control ([3]; 10 mg/kg IP, trials 1, 2, or 3): no statistically significant change
